# From patent publication US8993618B2, “Composition for treating influenza A (H1N1) virus and a preparation method therefor” (priority 2010, dated 2015)
# Where two headings read alike, the source gives them in different places.
# Assays:
# in vitro [1] = settings: human
# in vitro [2] = settings: human, IC50 cytotoxicity Hep 3B
# in vitro [3] = settings: human; remark: listed apart in the source
# in vitro [4] = settings: human, IC50 cytotoxicity MCF 7
# in vitro [5] = settings: human; remark: listed apart in the source
# in vitro [6] = settings: human; remark: listed apart in the source
# [7] = MTT cytotoxicity assay, MCF 7; settings: human, MCF 7 breast cancer cells, IC50 cytotoxicity MCF 7, MTT
# [8] = MTT cytotoxicity assay, A 549; settings: human, A 549 lung cancer cells
# [9] = MTT cytotoxicity assay, Hep G2; settings: human, Hep G2 liver cancer cells
# [10] = MTT cytotoxicity assay, Hep 3B; settings: human, Hep 3B liver cancer cells, IC50 cytotoxicity Hep 3B
# [11] = MTT cytotoxicity assay, Ca9-22; settings: human, Ca9-22 oral cancer cells
# [12] = MTT cytotoxicity assay, MDA-MB-231; settings: human, MDA-MB-231 breast cancer cells
# influenza A virus (H1N1) = assay: microbe, parasite or virus in culture; type: cell-based; settings: for IC50 / IC90: Influenza A virus; for IC50: read-out: IC50, influenza A (H1N1) antiviral activity; for IC90: read-out: IC90, influenza A (H1N1) antiviral activity
# [13] = system: Hep G2 liver cancer cell line
# [14] = system: Hep 3B liver cancer cell line
# [15] = system: MDA-MB-231 breast cancer cell line
# [16] = system: MCF 7 breast cancer cell line
# [17] = system: Ca9-22 oral cancer cell line
# [18] = system: A 549 lung cancer cell line
# [19] = system: Ca9-22 oral cancer cell line; assay: MTT cytotoxicity assay, Ca9-22; settings: MTT, 3 days
# [20] = system: MCF 7 breast cancer cell line; assay: MTT cytotoxicity assay, MCF 7; settings: MTT, 3 days
# [21] = system: A 549 lung cancer cell line; assay: MTT cytotoxicity assay, A 549; settings: MTT, 3 days
# [22] = system: Hep G2 liver cancer cell line; assay: MTT cytotoxicity assay, Hep G2; settings: MTT, 3 days
# [23] = system: Hep 3B liver cancer cell line; assay: MTT cytotoxicity assay, Hep 3B; settings: 3 days
# [24] = system: MDA-MB-231 breast cancer cell line; assay: MTT cytotoxicity assay, MDA-MB-231; settings: MTT, 3 days
# [25] = H1N1, 72 h, MDCK cells, XTT, 3 days, concentration achieving 50% cytoprotection
# [26] = H1N1, 72 h, MDCK cells, XTT, 3 days
# [27] = MDCK cells, XTT, 3 days, concentration achieving 50% cytoprotection
compound,measurement,setting,value
"C[C@@H]1C[C@@H](O)[C@]2(C)[C@@H](C)C(=O)CC[C@H]2[C@]1(C)COc1ccc2ccc(=O)oc2c1 (single isomer, unassigned) [Kamolonol, kamolonol]",IC50 at 3 days,in vitro [1],> 20 µg/mL
same,IC50 at 3 days,in vitro [2],17.9 µg/mL
same,IC50 at 3 days,in vitro [3],> 20 µg/mL
same,IC50 at 3 days,in vitro [4],> 20 µg/mL
same,IC50 at 3 days,in vitro [5],> 20 µg/mL
same,IC50 at 3 days,in vitro [6],> 20 µg/mL
"C=C1CC[C@]2(C)C(C)(C)[C@@H](OC(C)=O)CC[C@]2(C)[C@H]1COc1ccc2ccc(=O)oc2c1 (single isomer, unassigned) [Polyanthinin, polyanthinin]",IC50 at 3 days,in vitro [2],5.9 µg/mL
same,IC50 at 3 days,in vitro [4],9.94 µg/mL
"COc1cc(C=O)ccc1O (single isomer, unassigned) [Vanillin, vanillin]",IC50 at 3 days,[7],15.7 µg/mL
same,IC50 at 3 days,[8],16.4 µg/mL
same,IC50 at 3 days,[9],> 20 µg/mL
same,IC50 at 3 days,[10],> 20 µg/mL
same,IC50 at 3 days,[11],> 20 µg/mL
same,IC50 at 3 days,[12],> 20 µg/mL
"NC12CC3CC(CC(C3)C1)C2 [Amantadine, reference compound]",IC50,"influenza A virus (H1N1); H1N1, MDCK, 72 h",0.92 ± 0.04 µg/mL
same,IC90,"influenza A virus (H1N1); H1N1, MDCK, 72 h",1.73 ± 0.11 µg/mL
"CC(=O)O[C@H](CC/C(C)=C/CC/C(C)=C/COc1ccc2ccc(=O)oc2c1)C(C)(C)O [Compound 2, 10′R-Acetoxy-11′-hydroxyumbelliprenin]",IC50,influenza A virus (H1N1); [25],0.94 ± 0.07 µg/mL
same,IC90,influenza A virus (H1N1); [26],1.98 ± 0.12 µg/mL
same,IC50 at 3 days,in vitro [1],> 20 µg/mL
same,IC50 at 3 days,in vitro [2],19.8 µg/mL
same,IC50 at 3 days,in vitro [3],> 20 µg/mL
same,IC50 at 3 days,in vitro [4],> 20 µg/mL
same,IC50 at 3 days,in vitro [5],> 20 µg/mL
same,IC50 at 3 days,in vitro [6],> 20 µg/mL
"CC(C)=CCC/C(C)=C/C(O)C/C(C)=C/COc1ccc2ccc(=O)oc2c1 (stereo not drawn) [Compound 4, 5′-hydroxyumbelliprenin]","IC90, influenza A (H1N1) antiviral activity","influenza A virus (H1N1); MDCK cells, XTT, 3 days",0.62 ± 0.08 µg/mL
same,"IC50, influenza A (H1N1) antiviral activity",influenza A virus (H1N1); [27],0.36 ± 0.03 µg/mL
"C/C(=C\COc1ccc2ccc(=O)oc2c1)CC/C=C(\C)CCC(O)C(C)(C)O (stereo not drawn) [Compound 5, 10′R-karatavicinol]","IC90, influenza A (H1N1) antiviral activity","influenza A virus (H1N1); MDCK cells, XTT, 3 days",2.05 ± 0.14 µg/mL
same,"IC50, influenza A (H1N1) antiviral activity",influenza A virus (H1N1); [27],0.99 ± 0.07 µg/mL
same,IC50 cytotoxicity Hep G2,[13],>20 µg/mL
same,IC50 cytotoxicity Hep 3B,[14],>20 µg/mL
same,IC50 cytotoxicity MDA-MB-231,[15],>20 µg/mL
same,IC50 cytotoxicity MCF 7,[16],14.27 µg/mL
same,IC50 cytotoxicity Ca9-22,[17],>20 µg/mL
same,IC50 cytotoxicity A 549,[18],10.97 µg/mL
"CC(=O)OC(CC=C(C)C)/C(C)=C/[C@@H](O)C/C(C)=C/COc1ccc2ccc(=O)oc2c1 (stereo partly drawn) [Compound 6, 8′-acetoxy-5′S-hydroxyumbelliprenin]","IC90, influenza A (H1N1) antiviral activity","influenza A virus (H1N1); MDCK cells, XTT, 3 days",1.56 ± 0.11 µg/mL
same,"IC50, influenza A (H1N1) antiviral activity",influenza A virus (H1N1); [27],0.81 ± 0.06 µg/mL
same,IC50 cytotoxicity Hep G2,[13],15.59 µg/mL
same,IC50 cytotoxicity Hep 3B,[14],9.82 µg/mL
same,IC50 cytotoxicity MDA-MB-231,[15],>20 µg/mL
same,IC50 cytotoxicity MCF 7,[16],>20 µg/mL
same,IC50 cytotoxicity Ca9-22,[17],14.23 µg/mL
same,IC50 cytotoxicity A 549,[18],>20 µg/mL
"COC(=O)CC[C@H]1C(=C(C)C)CC[C@H](C)[C@]1(C)COc1ccc2ccc(=O)oc2c1 [Compound 7, methyl galbanate]",IC50,influenza A virus (H1N1); [25],0.26 ± 0.03 µg/mL
same,IC90,influenza A virus (H1N1); [26],0.44 ± 0.05 µg/mL
same,IC50 at 3 days,in vitro [2],4.33 µg/mL
same,IC50 at 3 days,in vitro [4],> 20 µg/mL
"CC(C)=C1CC[C@H](C)[C@](C)(COc2ccc3ccc(=O)oc3c2)[C@H]1CCC(=O)O [Compound 8, galbanic acid]",IC50,influenza A virus (H1N1); [25],0.45 ± 0.04 µg/mL
same,IC90,influenza A virus (H1N1); [26],0.88 ± 0.07 µg/mL
"C/C(=C\COc1ccc2ccc(=O)oc2c1)CC[C@@H]1C(C)(C)[C@H]2CC[C@]1(C)O2 [Compound 9, farnesiferol C]","IC90, influenza A (H1N1) antiviral activity","influenza A virus (H1N1); MDCK cells, XTT, 3 days",0.50 ± 0.07 µg/mL
same,"IC50, influenza A (H1N1) antiviral activity",influenza A virus (H1N1); [27],0.29 ± 0.02 µg/mL
"C=C1CC[C@@H]2C(C)(C)[C@H](O)CC[C@@]2(C)[C@H]1COc1ccc2ccc(=O)oc2c1 [Compound 10, farnesiferol A]","IC90, influenza A (H1N1) antiviral activity","influenza A virus (H1N1); MDCK cells, XTT, 3 days",0.64 ± 0.07 µg/mL
same,"IC50, influenza A (H1N1) antiviral activity",influenza A virus (H1N1); [27],0.51 ± 0.04 µg/mL
same,IC50 cytotoxicity Hep G2,[13],14.89 µg/mL
same,IC50 cytotoxicity Hep 3B,[14],7.66 µg/mL
same,IC50 cytotoxicity MDA-MB-231,[15],19.00 µg/mL
same,IC50 cytotoxicity MCF 7,[16],15.57 µg/mL
same,IC50 cytotoxicity A 549,[18],15.79 µg/mL
same,IC50 cytotoxicity Ca9-22,[19],12.07 µg/mL
"CC1=CC[C@@H]2C(C)(C)[C@@H](O)CC[C@@]2(C)[C@@H]1COc1ccc2ccc(=O)oc2c1 [Compound 11, conferol]",IC50,influenza A virus (H1N1); [25],0.47 ± 0.05 µg/mL
same,IC90,influenza A virus (H1N1); [26],0.83 ± 0.09 µg/mL
same,IC50 cytotoxicity Hep 3B,"[14]; human, 3 days",2.63 µg/mL
same,IC50 cytotoxicity MCF 7,"[16]; human, 3 days",3.38 µg/mL
same,IC50 at 3 days,in vitro [2],2.6 µg/mL
same,IC50 at 3 days,in vitro [4],3.4 µg/mL
"CC1=CC(=O)[C@@H]2C(C)(C)[C@H](O)CC[C@@]2(C)[C@@H]1COc1ccc2ccc(=O)oc2c1 [Compound 12, ligupersin A]","IC90, influenza A (H1N1) antiviral activity","influenza A virus (H1N1); MDCK cells, XTT, 3 days",1.75 ± 0.12 µg/mL
same,"IC50, influenza A (H1N1) antiviral activity",influenza A virus (H1N1); [27],0.86 ± 0.08 µg/mL
"CC1=CC(=O)[C@@H]2C(C)(C)C(=O)CC[C@@]2(C)[C@@H]1COc1ccc2ccc(=O)oc2c1 [Compound 13, epi-conferdione]","IC90, influenza A (H1N1) antiviral activity","influenza A virus (H1N1); MDCK cells, XTT, 3 days",0.37 ± 0.03 µg/mL
same,"IC50, influenza A (H1N1) antiviral activity",influenza A virus (H1N1); [27],0.32 ± 0.02 µg/mL
"COc1cccc2c1C(=O)c1c(O)c3c(c(O)c1C2=O)C[C@@](O)(C(=O)CO)C[C@@H]3O[C@H]1C[C@H](N)[C@H](O)[C@H](C)O1 [Doxorubicin, reference compound]",IC50 at 3 days,[8],0.35 µg/mL
same,IC50 at 3 days,[9],0.16 µg/mL
same,IC50 at 3 days,[10],0.41 µg/mL
same,IC50 at 3 days,[11],0.14 µg/mL
foetisulfide C,IC50 cytotoxicity MCF 7,[20],>20 µg/mL
same,IC50 cytotoxicity A 549,[21],9.14 µg/mL
same,IC50 cytotoxicity Hep G2,[22],>20 µg/mL
same,IC50 cytotoxicity Hep 3B,[23],19.21 µg/mL
same,IC50 cytotoxicity Ca9-22,[19],16.48 µg/mL
same,IC50 cytotoxicity MDA-MB-231,[24],>20 µg/mL
